According to the NIST ThermoML archive (doi:10.1016/j.jct.2010.02.006):
± gives the expanded uncertainty stated by the source.

Test: activity coefficient (dimensionless); of the first substance listed, at infinite dilution; xn = mol fraction of the nth substance listed
Conditions: 101.3 kPa, Liquid, Chromatography, x1 = 0

activity coefficient (313.3 K) | activity coefficient (343.1 K) | activity coefficient (313.2 K) | activity coefficient (333.1 K) | activity coefficient (303.5 K) | activity coefficient (323.3 K) | activity coefficient (302.8 K) | activity coefficient (313.4 K) | activity coefficient (323.1 K) | activity coefficient (332.8 K) | activity coefficient (343.4 K) | SMILES | further results
 | 43.4 ± 3.8 | 56 ± 4.8 | 47.8 ± 4.1 | 60.5 ± 5.2 | 51.5 ± 4.5 |  |  |  |  |  | C=CCCCCCCCC [1-decene] + CCn1cc[n+](C)c1.N#C[B-](C#N)(C#N)C#N | 
6.15 ± 0.53 | 5.59 ± 0.48 |  | 5.78 ± 0.5 | 6.33 ± 0.55 | 5.97 ± 0.52 |  |  |  |  |  | C#CCCCCC [1-heptyne] + CCn1cc[n+](C)c1.N#C[B-](C#N)(C#N)C#N | 
4.04 ± 0.35 | 3.58 ± 0.31 |  | 3.77 ± 0.33 | 4.18 ± 0.36 | 3.92 ± 0.34 |  |  |  |  |  | C#CCCCC [1-hexyne] + CCn1cc[n+](C)c1.N#C[B-](C#N)(C#N)C#N | 
9.42 ± 0.81 |  |  | 8.84 ± 0.76 | 9.64 ± 0.83 | 9.11 ± 0.79 |  |  |  |  |  | C#CCCCCCC [1-octyne] + CCn1cc[n+](C)c1.N#C[B-](C#N)(C#N)C#N | activity coefficient (342.8 K): 8.58 ± 0.74
2.61 ± 0.23 | 2.29 ± 0.2 |  | 2.38 ± 0.21 | 2.72 ± 0.23 | 2.5 ± 0.22 |  |  |  |  |  | C#CCCC [1-pentyne] + CCn1cc[n+](C)c1.N#C[B-](C#N)(C#N)C#N | 
1.31 ± 0.11 |  |  |  |  |  |  |  |  |  |  | c1ccccc1 [benzene] + CCn1cc[n+](C)c1.N#C[B-](C#N)(C#N)C#N | activity coefficient (303.6 K): 1.31 ± 0.11; activity coefficient (323.2 K): 1.34 ± 0.11; activity coefficient (333.3 K): 1.31 ± 0.11; activity coefficient (343.2 K): 1.3 ± 0.11
 |  |  |  |  |  | 13.8 ± 1.2 | 12.4 ± 1.1 | 11.2 ± 0.97 | 9.85 ± 0.85 | 8.64 ± 0.75 | C1CCCCC1 [cyclohexane] + CCn1cc[n+](C)c1.N#C[B-](C#N)(C#N)C#N | 
1.5 ± 0.13 | 1.16 ± 0.1 |  | 1.27 ± 0.11 | 1.64 ± 0.14 | 1.37 ± 0.12 |  |  |  |  |  | CCO [ethanol] + CCn1cc[n+](C)c1.N#C[B-](C#N)(C#N)C#N | 
 |  | 3 ± 0.26 |  |  |  |  |  | 3.05 ± 0.26 |  |  | CCc1ccccc1 [ethylbenzene] + CCn1cc[n+](C)c1.N#C[B-](C#N)(C#N)C#N | activity coefficient (303.6 K): 3 ± 0.26; activity coefficient (333.2 K): 2.97 ± 0.26; activity coefficient (343.3 K): 2.92 ± 0.25
 |  |  |  |  |  | 37.6 ± 3.3 | 32.2 ± 2.8 | 28.1 ± 2.4 | 23.8 ± 2.1 | 19.9 ± 1.7 | CCCCCCC [heptane] + CCn1cc[n+](C)c1.N#C[B-](C#N)(C#N)C#N | 
 | 6.27 ± 0.54 | 9.74 ± 0.84 | 7.35 ± 0.63 | 11.3 ± 0.97 | 8.39 ± 0.72 |  |  |  |  |  | C=CCCCC [hex-1-ene] + CCn1cc[n+](C)c1.N#C[B-](C#N)(C#N)C#N | 
 |  |  |  |  |  | 21 ± 1.8 | 17.4 ± 1.5 | 15.1 ± 1.3 | 12.5 ± 1.1 | 10.3 ± 0.89 | CCCCCC [hexane] + CCn1cc[n+](C)c1.N#C[B-](C#N)(C#N)C#N | 
1.05 ± 0.09 | 0.85 ± 0.07 |  | 0.91 ± 0.08 | 1.13 ± 0.09 | 0.97 ± 0.08 |  |  |  |  |  | CO [methanol] + CCn1cc[n+](C)c1.N#C[B-](C#N)(C#N)C#N | 
 |  |  |  |  |  | 20.7 ± 1.8 | 18.9 ± 1.6 | 16.9 ± 1.5 | 15.2 ± 1.3 | 13.3 ± 1.1 | CC1CCCCC1 [methylcyclohexane] + CCn1cc[n+](C)c1.N#C[B-](C#N)(C#N)C#N | 
 |  |  |  |  |  | 85 ± 7.4 | 78.1 ± 6.8 | 70.8 ± 6.1 | 63.5 ± 5.5 | 55.3 ± 4.8 | CCCCCCCCC [nonane] + CCn1cc[n+](C)c1.N#C[B-](C#N)(C#N)C#N | 
 | 19 ± 1.6 | 26.8 ± 2.3 | 21.5 ± 1.9 | 30.1 ± 2.6 | 24 ± 2.1 |  |  |  |  |  | C=CCCCCCC [oct-1-ene] + CCn1cc[n+](C)c1.N#C[B-](C#N)(C#N)C#N | 
 |  |  |  |  |  | 58.9 ± 5.1 | 52.5 ± 4.5 | 46.7 ± 4 | 40.7 ± 3.5 | 34.9 ± 3 | CCCCCCCC [octane] + CCn1cc[n+](C)c1.N#C[B-](C#N)(C#N)C#N | 
 |  |  |  |  |  | 10.3 ± 0.89 | 8.21 ± 0.71 | 7.05 ± 0.61 | 5.92 ± 0.51 | 4.88 ± 0.42 | CCCCC [pentane] + CCn1cc[n+](C)c1.N#C[B-](C#N)(C#N)C#N | 
1.92 ± 0.17 | 1.46 ± 0.12 |  | 1.6 ± 0.14 | 2.12 ± 0.18 | 1.74 ± 0.15 |  |  |  |  |  | CCCO [propan-1-ol] + CCn1cc[n+](C)c1.N#C[B-](C#N)(C#N)C#N | 

SMILES | activity coefficient (313.3 K) | activity coefficient (343.1 K) | activity coefficient (313.2 K) | activity coefficient (333.1 K) | activity coefficient (303.5 K) | activity coefficient (323.3 K) | activity coefficient (302.8 K) | activity coefficient (313.4 K) | activity coefficient (323.1 K) | activity coefficient (332.8 K) | activity coefficient (343.4 K) | further results
Cc1ccccc1C [1,2-dimethylbenzene] + CCn1cc[n+](C)c1.N#C[B-](C#N)(C#N)C#N | 2.53 ± 0.22 | 2.54 ± 0.22 |  |  |  |  |  |  |  |  |  | activity coefficient (303.6 K): 2.49 ± 0.21; activity coefficient (323.2 K): 2.58 ± 0.22; activity coefficient (333.2 K): 2.56 ± 0.22
Cc1cccc(C)c1 [1,3-dimethylbenzene] + CCn1cc[n+](C)c1.N#C[B-](C#N)(C#N)C#N |  | 2.99 ± 0.26 | 2.99 ± 0.26 | 3.01 ± 0.26 |  |  |  |  |  |  |  | activity coefficient (303.6 K): 2.92 ± 0.25; activity coefficient (323.2 K): 3.03 ± 0.26
Cc1ccc(C)cc1 [1,4-dimethylbenzene] + CCn1cc[n+](C)c1.N#C[B-](C#N)(C#N)C#N |  |  | 2.85 ± 0.25 |  |  |  |  |  |  |  |  | activity coefficient (303.7 K): 2.78 ± 0.24; activity coefficient (323.2 K): 2.87 ± 0.25; activity coefficient (333.3 K): 2.85 ± 0.25; activity coefficient (343.2 K): 2.84 ± 0.24
Cc1ccccc1 [toluene] + CCn1cc[n+](C)c1.N#C[B-](C#N)(C#N)C#N |  |  | 1.92 ± 0.16 |  |  |  |  |  | 1.98 ± 0.17 |  |  | activity coefficient (303.6 K): 1.9 ± 0.16; activity coefficient (333.2 K): 1.94 ± 0.17; activity coefficient (343.3 K): 1.92 ± 0.16
